Test results reported in patent US10155021B2, “Antimicrobial 4-oxoquinolizines” (Emergent Product Development Gaithersburg Inc., priority 2011, dated 2018).
In brackets after ≈: the same amount, converted by molar mass. Where two headings read alike, the source gives them in different places.

How the values were obtained:
S. aureus SMITH = assay: MIC, panel of quinolone-resistant strains (CLSI); assay type: cell-based; details: Staphylococcus aureus; CIP R
S. pneumoniae 1027 = assay: MIC, panel of quinolone-resistant strains (CLSI); assay type: cell-based; details: Streptococcus pneumoniae, LEV R
A. baumannii ATCC 19606 [1] = assay: MIC determination for Acinetobacter strains (Example 3); assay type: cell-based; details: ATCC19606, reference strain
A. baumannii J2 = assay: as above; assay type: cell-based; details: LEV R, CIP R
[2] = tested on: Acinetobacter spp. H064200250; assay: as above; assay type: cell-based, Acinetobacter sp.; details: LEV R, CIP R, MRP R, IMP I
[3] = tested on: 11 strains of A. baumannii and one strain of Acinetobacter sp.; assay: Preliminary MBC without and with sub-inhibitory polymyxin B, whole panel (Example 4; also strains not listed separately); assay type: cell-based; details: for MBC: Acinetobacter baumannii, read-out: MBC without PB; for MBC +0.06 μg/ml PB: A. baumannii A14, +0.06 μg/ml polymyxin B; for MBC +[…] PB: A. baumannii NCTC 13301, +[…] polymyxin B
A. baumannii ATCC 19606 [4] = assay: Preliminary MBC without and with sub-inhibitory polymyxin B (Example 4); assay type: cell-based, Acinetobacter baumannii; details: preliminary MBC; for MBC: Acinetobacter baumannii, ATCC19606, A. baumannii ATCC 19606, without polymyxin B, read-out: MBC without PB; for MBC +0.06 μg/ml PB: A. baumannii ATCC 19606, +0.06 μg/ml polymyxin B
A. baumannii A329 = assay: as above; assay type: cell-based, Acinetobacter baumannii; details: for MBC: Acinetobacter baumannii, A329, A. baumannii A329, without polymyxin B, read-out: MBC without PB
B. thailandensis E264 = assay: microbe, parasite or virus in culture; assay type: cell-based, Burkholderia thailandensis; details: Burkholderia thailandensis, E264, read-out: MIC B. thailandensis E264
P. aeruginosa ATCC 27853 = assay: MIC, selected panel of Gram-positive and Gram-negative strains (Example 5); assay type: cell-based; details: Pseudomonas aeruginosa, ATCC27853; read-out: MIC P. aeruginosa ATCC 27853
[5] = tested on: S. aureus ATCC 43300 (MRSA, FQ-S); assay: as above; assay type: cell-based, Staphylococcus aureus; details: Staphylococcus aureus; read-out: MIC S. aureus ATCC 43300 (MRSA, FQ-S)
[6] = tested on: S. aureus BAA-1556 (USA300-Type MRSA, FQ-R); assay: as above; assay type: cell-based, Staphylococcus aureus; details: Staphylococcus aureus; read-out: MIC S. aureus BAA-1556 (USA300-Type MRSA, FQ-R)
S. aureus 101 = assay: MIC, standard panel of Gram-positive and Gram-negative bacteria (CLSI); assay type: cell-based, Staphylococcus aureus; details: Staphylococcus aureus, 101; CAMHB; read-out: MIC S. aureus 101
E. coli 25922 = assay: as above; assay type: cell-based, Escherichia coli; details: Escherichia coli, 25922; CAMHB; read-out: MIC E. coli 25922
A. Baumanii OXA-51 = assay: MIC, panel of quinolone-resistant strains (CLSI); assay type: cell-based; details: Acinetobacter baumannii; CIP R, ESBL
A. baumannii A401 = assay: Preliminary MBC without and with sub-inhibitory polymyxin B (Example 4); assay type: cell-based, Acinetobacter baumannii; details: preliminary MBC; for MBC: Acinetobacter baumannii, A401, A baumannii A 401, without polymyxin B, read-out: MBC without PB; for MBC +0.06 μg/ml PB: A baumannii A 401, +0.06 μg/ml polymyxin B
E. coli IMP = assay: microbe, parasite or virus in culture; details: Escherichia coli, read-out: MIC E. coli IMP
A. baumannii A489 = assay: MIC determination for Acinetobacter strains (Example 3); assay type: cell-based; details: LEV R, CIP R, MRP R, IMP R, AMK R, TET R
A. baumannii A387 [7] = assay: as above; assay type: cell-based; details: LEV I, CIP R, IPM R, AMK R, TET R
A. baumannii A390 [8] = assay: as above; assay type: cell-based; details: LEV R, CIP R, MRP R, IPM I, AMK R, TET I
A. baumannii A473 = assay: as above; assay type: cell-based; details: LEV R, CIP R, MRP R, IMP R, AMK R, TET R
A. baumannii A387 [9] = assay: MIC without and with sub-inhibitory polymyxin B (Example 4); assay type: cell-based, Acinetobacter baumannii; details: for MIC +0.06 μg/ml PB / MIC without PB/MIC + PB: A. baumannii A387; for MIC +0.06 μg/ml PB: +0.06 μg/ml polymyxin B; for MIC without PB/MIC + PB: ratio, PB 0.06 μg/ml; for MIC: Acinetobacter baumannii, A387, A. baumannii A387, without polymyxin B, read-out: MIC without PB
A. baumannii A390 [10] = assay: as above; assay type: cell-based, Acinetobacter baumannii; details: for MIC: Acinetobacter baumannii, A390, A. baumannii A390, without polymyxin B, read-out: MIC without PB
A. baumannii A387 [11] = assay: Preliminary MBC without and with sub-inhibitory polymyxin B (Example 4); assay type: cell-based, Acinetobacter baumannii; details: for MBC +0.06 μg/ml PB: A. baumannii A387, +0.06 μg/ml polymyxin B; for MBC: Acinetobacter baumannii, A387, A. baumannii A387, without polymyxin B, read-out: MBC without PB
[12] = A. baumannii A14, without polymyxin B, 1st experiment
[13] = A. baumannii A14, without polymyxin B, 2nd experiment
[14] = NCTC13301, A. baumannii NCTC 13301, without polymyxin B, 1st experiment
[15] = NCTC13301, A. baumannii NCTC 13301, without polymyxin B, 2nd experiment

C[C@H]1COc2c(N3CCN(C)CC3)c(F)cc3c(=O)c(C(=O)O)cn1c23 [Levofloxacin, reference compound]
MIC (S. aureus SMITH): 8 µg/mL (≈ 22.1 µM)
MIC (S. pneumoniae 1027): 16 µg/mL (≈ 44.3 µM)
MIC (A. baumannii ATCC 19606 [1]): 1 µg/mL (≈ 2.77 µM)
MIC (A. baumannii J2): 32 µg/mL (≈ 88.6 µM)
MIC [2]: 16 µg/mL (≈ 44.3 µM)
MBC [3, 12]: 32 µg/mL (≈ 88.6 µM)
MBC [3, 13]: 32 µg/mL (≈ 88.6 µM)
MBC [3, 14]: 32 µg/mL (≈ 88.6 µM)
MBC (A. baumannii ATCC 19606 [4]; 2nd experiment): 1 µg/mL (≈ 2.77 µM)
MBC (A. baumannii ATCC 19606 [4]; 1st experiment): 0.5 µg/mL (≈ 1.38 µM)
MBC (A. baumannii A329; 1st experiment): 32 µg/mL (≈ 88.6 µM)
MBC (A. baumannii A329; 2nd experiment): 32 µg/mL (≈ 88.6 µM)
MIC (B. thailandensis E264): 4 µg/mL (≈ 11.1 µM)
MIC (P. aeruginosa ATCC 27853): 1 µg/mL (≈ 2.77 µM)
MIC [5]: 0.25 µg/mL (≈ 0.692 µM)
MIC [6]: 8 µg/mL (≈ 22.1 µM)

Cc1c(-c2ccc(CN)c(F)c2)ccn2c(=O)c(C(=O)O)cc(C3CC3)c12 [Compound 4, 8-(3-fluoro-4-aminomethyl-phenyl)-1-cyclopropyl-9-methyl-4-oxo-quinolizine-3-carboxylic acid]
MIC (S. aureus 101): 4 µg/mL (≈ 10.9 µM)
MIC (E. coli 25922): < 0.03 µg/mL
MIC (A. Baumanii OXA-51): 16 µg/mL (≈ 43.7 µM)
MIC (S. pneumoniae 1027): 1 µg/mL (≈ 2.73 µM)
MIC [2]: 16 µg/mL (≈ 43.7 µM)
MBC [3, 12]: 16 µg/mL (≈ 43.7 µM)
MBC [3, 13]: > 32 µg/mL
MBC [3, 15]: 32 µg/mL (≈ 87.3 µM)
MBC (A. baumannii A329; 1st experiment): 16 µg/mL (≈ 43.7 µM)
MBC (A. baumannii A329; 2nd experiment): 32 µg/mL (≈ 87.3 µM)
MBC (A. baumannii A401; 2nd experiment): 32 µg/mL (≈ 87.3 µM)
MBC (A. baumannii A401; 1st experiment): 4 µg/mL (≈ 10.9 µM)
MIC (B. thailandensis E264): 1 µg/mL (≈ 2.73 µM)
MIC (P. aeruginosa ATCC 27853): 1 µg/mL (≈ 2.73 µM)
MIC [5]: 0.032 to 0.064 µg/mL (≈ 0.0873 to 0.175 µM)
MIC [6]: 0.5 µg/mL (≈ 1.36 µM)
MIC (E. coli IMP): < 8 ng/mL

C[C@@H](O)[C@H]1C(=O)N2C(C(=O)O)=C(SCCN=CN)C[C@H]12 [Imipenem, reference compound]
MIC (A. baumannii ATCC 19606 [1]): 2 µg/mL (≈ 6.68 µM)
MIC (A. baumannii J2): 4 µg/mL (≈ 13.4 µM)
MIC [2]: 16 µg/mL (≈ 53.4 µM)
MIC (A. baumannii A489): 128 µg/mL (≈ 428 µM)
MIC (A. baumannii A387 [7]): 16 µg/mL (≈ 53.4 µM)
MIC (A. baumannii A390 [8]): 16 µg/mL (≈ 53.4 µM)
MIC (A. baumannii A473): 32 µg/mL (≈ 107 µM)
MBC +0.06 μg/ml PB ([3]; 1st experiment): 1 µg/mL
MBC +0.06 μg/ml PB ([3]; 2nd experiment): 0.5 µg/mL
MBC +[…] PB ([3]; 1st experiment): 16 µg/mL (≈ 53.4 µM)
MBC +[…] PB ([3]; 2nd experiment): 0.5 µg/mL (≈ 1.67 µM)
MBC [3, 12]: 2 µg/mL (≈ 6.68 µM)
MBC [3, 13]: 1 µg/mL (≈ 3.34 µM)
MBC [3, 14]: 128 µg/mL (≈ 428 µM)
MBC [3, 15]: 128 µg/mL (≈ 428 µM)
MIC +0.06 μg/ml PB (A. baumannii A387 [9]; 1st experiment): 8 µg/mL
MIC +0.06 μg/ml PB (A. baumannii A387 [9]; 2nd experiment, visual reading): 8 µg/mL
MIC without PB/MIC + PB (A. baumannii A387 [9]; 1st experiment): 2
MIC without PB/MIC + PB (A. baumannii A387 [9]; 2nd experiment): 2
MIC (A. baumannii A387 [9]; 1st experiment): 16 µg/mL (≈ 53.4 µM)
MIC (A. baumannii A387 [9]; 2nd experiment, visual reading): 16 µg/mL (≈ 53.4 µM)
MIC +0.06 μg/ml PB (A. baumannii A390 [10]; A. baumannii A390, +0.06 μg/ml polymyxin B, 2nd experiment, visual reading): 4 µg/mL
MIC without PB/MIC + PB (A. baumannii A390 [10]; A. baumannii A390, ratio, PB 0.06 μg/ml, 2nd experiment): 4
MIC (A. baumannii A390 [10]; 1st experiment): 16 µg/mL (≈ 53.4 µM)
MIC (A. baumannii A390 [10]; 2nd experiment, visual reading): 16 µg/mL (≈ 53.4 µM)
MBC +0.06 μg/ml PB (A. baumannii ATCC 19606 [4]; 2nd experiment): 1 µg/mL
MBC +0.06 μg/ml PB (A. baumannii ATCC 19606 [4]; 1st experiment): 2 µg/mL
MBC (A. baumannii ATCC 19606 [4]; 2nd experiment): 4 µg/mL (≈ 13.4 µM)
MBC (A. baumannii ATCC 19606 [4]; 1st experiment): 2 µg/mL (≈ 6.68 µM)
MBC +0.06 μg/ml PB (A. baumannii A329; A. baumannii A329, +0.06 μg/ml polymyxin B, 2nd experiment): 128 µg/mL
MBC (A. baumannii A329; 1st experiment): 128 µg/mL (≈ 428 µM)
MBC (A. baumannii A329; 2nd experiment): > 128 µg/mL
MBC +0.06 μg/ml PB (A. baumannii A387 [11]; 1st experiment): 8 µg/mL
MBC +0.06 μg/ml PB (A. baumannii A387 [11]; 2nd experiment): 8 µg/mL
MBC (A. baumannii A387 [11]; 1st experiment): 16 µg/mL (≈ 53.4 µM)
MBC (A. baumannii A387 [11]; 2nd experiment): 16 µg/mL (≈ 53.4 µM)
MBC +0.06 μg/ml PB (A. baumannii A401; 2nd experiment): 4 µg/mL
MBC +0.06 μg/ml PB (A. baumannii A401; 1st experiment): 8 µg/mL
MBC (A. baumannii A401; 2nd experiment): 32 µg/mL (≈ 107 µM)
MBC (A. baumannii A401; 1st experiment): 32 µg/mL (≈ 107 µM)
